Earlier results on one compound are cited in patent US10849867B2, “Methods and compositions for treating conditions associated with an abnormal inflammatory response” (First Wave Bio, Inc., priority 2015, dated 2020).

The conditions of the data set: at 20° C.; cited from earlier work.

For the compound `NCCO.O=C(Nc1ccc([N+](=O)[O-])cc1Cl)c1cc(Cl)ccc1O` [ethanol amine salt, 5-chloro-N-(2-chloro-4-nitrophenyl)-2-hydroxybenzamide with 2-aminoethanol (1.1)], the “dissolves in distilled water” value was 180 to 280 mg/L.
